According to US9315498B2, “Arlethynyl derivatives” (Hoffmann-La Roche Inc., priority 2010, dated 2016):

Molecular target: human mGlu5a receptor (Homo sapiens (Human), UniProt P41594)
Assay: Intracellular Ca2+ mobilization assay (mGlu5 PAM)
Format: cell-based
Conditions: for EC50: HEK-293 cells stably transfected with human mGlu5a, L-glutamate added at EC20 after pre-incubation with test compound, read-out: EC50 (nM) mGlu5PAM; for Emax: maximal response in % of the maximal stimulatory effect obtained with saturating concentrations of L-glutamate, read-out: Eff. (%)
Protocol: A monoclonal HEK-293 cell line stably transfected with a cDNA encoding for the human mGlu5a receptor was generated; for the work with mGlu5 Positive Allosteric Modulators (PAMs), a cell line with low receptor expression levels and low constitutive receptor activity was selected to allow the differentiation of agonistic versus PAM activity. Cells were cultured according to standard protocols (Freshney, 2000) in Dulbecco's Modified Eagle Medium with high glucose supplemented with 1 mM glutamine, 10% (vol/vol) heat-inactivated bovine calf serum, Penicillin/Streptomycin, 50 μg/ml hygromycin and 15 μg/ml blasticidin (all cell culture reagents and antibiotics from Invitrogen, Basel, Switzerland).
About 24 hrs before an experiment, 5×10^4 cells/well were seeded in poly-D-lysine coated, black/clear-bottomed 96-well plates. The cells were loaded with 2.5 μM Fluo-4AM in loading buffer (1×HBSS, 20 mM HEPES) for 1 hr at 37° C. and washed five times with loading buffer. The cells were transferred into a Functional Drug Screening System 7000 (Hamamatsu, Paris, France), and 11 half logarithmic serial dilutions of test compound at 37° C. were added and the cells were incubated for 10-30 min. with on-line recording of fluorescence. Following this pre-incubation step, the agonist L-glutamate was added to the cells at a concentration corresponding to EC20 (typically around 80 μM) with on-line recording of fluorescence; in order to account for day-to-day variations in the responsiveness of cells, the EC20 of glutamate was determined immediately ahead of each experiment by recording of a full dose-response curve of glutamate.
Responses were measured as peak increase in fluorescence minus basal (i.e. fluorescence without addition of L-glutamate), normalized to the maximal stimulatory effect obtained with saturating concentrations of L-glutamate. Graphs were plotted with the % maximal stimulatory using XLfit, a curve fitting program that iteratively plots the data using Levenburg Marquardt algorithm. The single site competition analysis equation used was y=A+((B−A)/(1+((x/C)D))), where y is the % maximal stimulatory effect, A is the minimum y, B is the maximum y, C is the EC50, x is the log10 of the concentration of the competing compound and D is the slope of the curve (the Hill Coefficient). From these curves the EC50 (concentration at which half maximal stimulation was achieved), the Hill coefficient as well as the maximal response in % of the maximal stimulatory effect obtained with saturating concentrations of L-glutamate were calculated.
A depression of the signal observed after addition of the EC20 concentration of L-glutamate was indicative of an inhibitory activity of the test compound.

Sequence of human mGlu5a receptor (P41594 other isoform, or with tags, fused parts or gaps): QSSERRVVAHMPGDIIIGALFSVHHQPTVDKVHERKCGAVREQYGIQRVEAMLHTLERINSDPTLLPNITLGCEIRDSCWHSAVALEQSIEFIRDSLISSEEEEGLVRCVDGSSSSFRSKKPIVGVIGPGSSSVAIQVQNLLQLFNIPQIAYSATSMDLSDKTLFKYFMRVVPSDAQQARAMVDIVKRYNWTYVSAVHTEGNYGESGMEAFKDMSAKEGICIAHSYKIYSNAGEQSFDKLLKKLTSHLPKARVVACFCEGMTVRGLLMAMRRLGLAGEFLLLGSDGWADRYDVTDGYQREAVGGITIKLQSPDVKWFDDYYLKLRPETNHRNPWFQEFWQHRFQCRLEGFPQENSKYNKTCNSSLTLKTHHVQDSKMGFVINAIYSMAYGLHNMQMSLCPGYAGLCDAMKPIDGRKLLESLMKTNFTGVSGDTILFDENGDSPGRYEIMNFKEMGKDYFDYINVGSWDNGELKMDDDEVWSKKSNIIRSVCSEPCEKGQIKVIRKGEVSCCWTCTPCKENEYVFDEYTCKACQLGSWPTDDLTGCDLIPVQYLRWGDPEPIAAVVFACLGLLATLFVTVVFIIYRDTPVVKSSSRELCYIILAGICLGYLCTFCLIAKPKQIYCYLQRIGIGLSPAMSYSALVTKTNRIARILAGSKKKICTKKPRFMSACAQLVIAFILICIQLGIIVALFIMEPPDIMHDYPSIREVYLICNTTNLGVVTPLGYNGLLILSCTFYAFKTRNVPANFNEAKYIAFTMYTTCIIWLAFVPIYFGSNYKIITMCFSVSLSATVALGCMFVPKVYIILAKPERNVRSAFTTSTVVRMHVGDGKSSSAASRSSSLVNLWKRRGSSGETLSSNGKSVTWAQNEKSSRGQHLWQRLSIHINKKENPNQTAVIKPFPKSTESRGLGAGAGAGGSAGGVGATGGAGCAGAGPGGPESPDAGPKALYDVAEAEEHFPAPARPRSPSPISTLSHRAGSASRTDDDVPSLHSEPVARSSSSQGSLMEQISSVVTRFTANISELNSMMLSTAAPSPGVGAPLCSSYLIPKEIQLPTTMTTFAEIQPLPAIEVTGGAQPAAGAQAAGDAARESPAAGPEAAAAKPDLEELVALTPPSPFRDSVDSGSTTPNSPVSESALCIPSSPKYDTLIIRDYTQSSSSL

| Compound | EC50 | Emax |
| --- | --- | --- |
| CCN1C(=O)N(c2ccc(C#Cc3ccccc3)cn2)CC1(C)C [Example 17, 3-Ethyl-4,4-dimethyl-1-(5-phenylethynyl-pyridin-2-yl)-imidazolidin-2-one] | 66 nM | 103% |
| CC1(C)CCN(c2cnc(C#Cc3cccc(F)c3)cn2)C(=O)C1 [Example 161, 1-(5-((3-Fluorophenyl)ethynyl)pyrazin-2-yl)-4,4-dimethylpiperidin-2-one] | 29 nM | 68% |
| CN1C(=O)N(c2ncc(C#Cc3ccc(F)cc3)cc2F)CC1(C)C [Example 110] | 96 nM | 117% |
| Cn1cc(C#Cc2ccc(N3CC(C)(C)OC3=O)nc2)cn1 [Example 31, 5,5-Dimethyl-3-[5-(1-methyl-1H-pyrazol-4-ylethynyl)-pyridin-2-yl]-oxazolidin-2-one] | 26 nM | 55% |
| O=C1CC2(COC2)CN1c1ccc(C#Cc2ccccc2)cn1 [Example 82, 6-(5-Phenylethynyl-pyridin-2-yl)-2-oxa-6-aza-spiro[3.4]octan-7-one] | 57 nM | 72% |
| CC1CN(c2ncc(C#Cc3cc(F)ccc3F)cn2)C(=O)OC1(C)C (racemic) [Example 146, (RS)-3-[5-(2,5-Difluoro-phenylethynyl)-pyrimidin-2-yl]-5,6,6-trimethyl-[1,3]oxazinan-2-one] | 69 nM | 64% |
| COC1C(=O)N(c2ccc(C#Cc3ccc(F)cc3)cn2)CC1(C)C (racemic) [Example 66, (RS)-1-[5-(4-Fluoro-phenylethynyl)-pyridin-2-yl]-3-methoxy-4,4-dimethyl-pyrrolidin-2-one] | 75 nM | 87% |
| CN1C(=O)N(c2ccc(C#Cc3ccccc3)cn2)CC12CCCC2 [Example 44, 1-Methyl-3-(5-phenylethynyl-pyridin-2-yl)-1,3-diaza-spiro[4.4]nonan-2-one] | 29 nM | 92% |
| CC1(C)CC(=O)N(c2cnc(C#Cc3cccc(F)c3)cn2)C1 [Example 160] | 29 nM | 39% |
| COC1C(=O)N(c2ncc(C#Cc3cccc(F)c3)cn2)CC1(C)C (racemic) [Example 130, (RS)-1-[5-(3-Fluoro-phenylethynyl)-pyrimidin-2-yl]-3-methoxy-4,4-dimethyl-pyrrolidin-2-one] | 41 nM | 74% |
| CC1(C)CCN(c2ccc(C#Cc3cccc(Cl)c3)cn2)C(=O)O1 [Example 77, 3-[5-(3-Chloro-phenylethynyl)-pyridin-2-yl]-6,6-dimethyl-[1,3]oxazinan-2-one] | 12 nM | 72% |
| CC1(C)CCN(c2ccc(C#Cc3ccc(F)cc3)cn2)C(=O)C1 [Example 91, 5′-(4-Fluoro-phenylethynyl)-4,4-dimethyl-3,4,5,6-tetrahydro-[1,2′]bipyridinyl-2-one] | 67 nM | 89% |
| CC1(C)CN(c2ncc(C#Cc3ccccc3)cc2F)C(=O)O1 [Example 1, 3-(3-Fluoro-5-phenylethynyl-pyridin-2-yl)-5,5-dimethyl-oxazolidin-2-one] | 30 nM | 68% |
| CC1(C)CN(c2ccc(C#Cc3ccccc3)cn2)C(=O)C1O (racemic) [Example 14, (3RS)-3-Hydroxy-4,4-dimethyl-1-(5-phenylethynyl-pyridin-2-yl)-pyrrolidin-2-one] | 388 nM | 114% |
| Cc1cccc(C#Cc2ccc(N3CCC(C)(C)OC3=O)nc2)c1 [Example 78, 6,6-Dimethyl-3-(5-m-tolylethynyl-pyridin-2-yl)-[1,3]oxazinan-2-one] | 24 nM | 72% |
| CC1(C)CN(c2ccc(C#Cc3ccc(F)cc3)cn2)C(=O)O1 [Example 32, 3-[5-(4-Fluoro-phenylethynyl)-pyridin-2-yl]-5,5-dimethyl-oxazolidin-2-one] | 19 nM | 60% |
| CN1C(=O)N(c2cnc(C#Cc3ccccc3)cn2)CCC1(C)C [Example 165, 3,4,4-Trimethyl-1-(5-(phenylethynyl)pyrazin-2-yl)tetrahydropyrimidin-2(1H)-one] | 36 nM | 55% |

| Compound | EC50 | Emax |
| --- | --- | --- |
| CN1C(=O)N(c2ccc(C#Cc3ccc(F)cc3)cn2)CCC1(C)C [Example 69, 1-[5-(4-Fluoro-phenylethynyl)-pyridin-2-yl]-3,4,4-trimethyl-tetrahydro-pyrimidin-2-one] | 49 nM | 107% |
| CN1C(=O)N(c2cnc(C#Cc3cccnc3)cn2)CC1(C)C [Example 157, 3,4,4-Trimethyl-1-(5-(pyridin-3-ylethynyl)pyrazin-2-yl)imidazolidin-2-one] | 206 nM | 34% |
| CN1C(=O)N(c2ccc(C#Cc3cncc(Cl)c3)cn2)CC1(C)C [Example 51, 1-[5-(5-Chloro-pyridin-3-ylethynyl)-pyridin-2-yl]-3,4,4-trimethyl-imidazolidin-2-one] | 29 nM | 45% |
| CC1(C)CC(=O)N(c2ccc(C#Cc3cccc(F)c3)cn2)C1 [Example 40, 1-[5-(3-Fluoro-phenylethynyl)-pyridin-2-yl]-4,4-dimethyl-pyrrolidin-2-one] | 15 nM | 100% |
| CN1C(=O)N(c2ccc(C#Cc3ccccc3)cn2)CC1C1CC1 (racemic) [Example 83, (RS)-4-Cyclopropyl-3-methyl-1-(5-phenylethynyl-pyridin-2-yl)-imidazolidin-2-one] | 53 nM | 86% |
| O=C1N(c2ccc(C#Cc3cccc(F)c3)cn2)CC2CCCCN12 (racemic) [Example 71, (RS)-2-[5-(3-Fluoro-phenylethynyl)-pyridin-2-yl]-hexahydro-imidazo[1,5-a]pyridin-3-one] | 17 nM | 41% |
| CN1C(=O)N(c2ccc(C#Cc3cccnc3)cn2)CC1(C)C [Example 48, 3,4,4-Trimethyl-1-(5-pyridin-3-ylethynyl-pyridin-2-yl)-imidazolidin-2-one] | 14 nM | 89% |
| CC1(C)CC(=O)N(c2ncc(C#Cc3ccccc3)cc2F)C1 [Example 21, 1-(3-Fluoro-5-phenylethynyl-pyridin-2-yl)-4,4-dimethyl-pyrrolidin-2-one] | 30 nM | 128% |
| CC1(C)CCN(c2ccc(C#Cc3ccc(F)c(F)c3)cn2)C(=O)O1 [Example 80, 3-[5-(3,4-Difluoro-phenylethynyl)-pyridin-2-yl]-6,6-dimethyl-[1,3]oxazinan-2-one] | 37 nM | 69% |
| COC1C(=O)N(c2ccc(C#Cc3cccc(F)c3)cn2)CC1(C)C (racemic) [Example 65, (RS)-1-[5-(3-Fluoro-phenylethynyl)-pyridin-2-yl]-3-methoxy-4,4-dimethyl-pyrrolidin-2-one] | 43 nM | 91% |
| CC1(C)CCN(c2ccc(C#Cc3ccccc3)nn2)C(=O)O1 [Example 153, 6,6-Dimethyl-3-(6-(phenylethynyl)pyridazin-3-yl)-1,3-oxazinan-2-one] | 14 nM | 86% |
| CC1CN(c2ncc(C#Cc3ccccc3)cn2)C(=O)OC1(C)C (racemic) [Example 145, (RS)-5,6,6-Trimethyl-3-(5-phenylethynyl-pyrimidin-2-yl)-[1,3]oxazinan-2-one] | 38 nM | 93% |
| CC(C)N1C(=O)N(c2ncc(C#Cc3ccccc3)cn2)CC1(C)C [Example 140, 3-Isopropyl-4,4-dimethyl-1-(5-phenylethynyl-pyrimidin-2-yl)-imidazolidin-2-one] | 28 nM | 58% |
| CN1C(=O)N(c2ccc(C#Cc3cc(F)ccc3F)cn2)CCC1(C)C [Example 68, 1-[5-(2,5-Difluoro-phenylethynyl)-pyridin-2-yl]-3,4,4-trimethyl-tetrahydro-pyrimidin-2-one] | 41 nM | 79% |
| CC1(C)CN(c2ccc(C#Cc3cccnc3)cn2)C(=O)O1 [Example 7, 5,5-Dimethyl-3-(5-pyridin-3-ylethynyl-pyridin-2-yl)-oxazolidin-2-one] | 33 nM | 39% |
| CC1(C)CN(c2ccc(C#Cc3cccc(F)c3)cn2)C(=O)O1 [Example 6, 3-[5-(3-Fluoro-phenylethynyl)-pyridin-2-yl]-5,5-dimethyl-oxazolidin-2-one] | 9 nM | 46% |
| CN1C(=O)N(c2ccc(C#Cc3ccccc3)cn2)[C@@H]2CCC[C@@H]21 (racemic) [Example 106, (3aRS, 6aSR)-1-methyl-3-(5-(phenylethynyl)pyridin-2-yl)hexahydrocyclopenta[d]imidazol-2(1H)-one] | 30 nM | 42% |
